From patent US9518104B2, “Compositions and methods for treating multiple sclerosis” (Centre for Addiction and Mental Health, priority 2012, dated 2016)
Where no end group is shown, it is not given here.

Tests used:
neurofilament-H = assay: Neurofilament-H immunostaining, axonal density in EAE mouse spinal cord; type: in vivo; conditions: EAE mice spinal cord; compared to sham
Procedure: (§1) Frozen coronal sections of EAE mice spinal cord (10 μm) thickness were cut using a microtome cryostat system (Bright Instruments 5030). All sections were initially incubated in blocking solution (0.1 m PBS, 1% Triton X-100, 0.5% Tween 20, 2% skim milk) or serum-free protein block (Dako Cytomation) for 1 h at room temperature to reduce nonspecific background and then incubated with primary and secondary antibodies overnight at 4° C. The following primary antibodies were used: anti-Iba1 (1:200; Dako), anti-Neurofilament H (1:200), anti-CC1, anti-CNPase (1:200), and anti-NeuN (1:200). Fluorescent secondary antibodies conjugated to Alexa 488 or Rhodamine Red-X (1:200; Invitrogen) or Cy3 (1:100; Jackson ImmunoResearch Laboratories) were used for detection of primary antibodies.

oligodendrocytes = assay: CNPase- and CC1-labeled oligodendrocytes in EAE mouse spinal cord; type: in vivo; conditions: EAE mice, dorsal regions of spinal cord; compared to sham
Procedure: as §1

myelin = assay: Luxol Fast Blue staining of myelin in EAE mouse spinal cord; type: in vivo; conditions: EAE mice spinal cord; compared to sham
Procedure: At day 30, mice were sacrificed by overdose anesthesia, and the spinal cord was dissected for co-immunoprecipitation analysis. For analysis of central nervous system infiltrates, brain and spinal cord tissues were collected and mononuclear cells were prepared by Percoll gradient centrifugation. For immunological analysis, splenocytes cells were dissected and cultured in vitro. For histological analysis, the same tissue samples were immediately fixed in 4% (wt/vol) paraformaldehyde. Frozen sections of spinal cord were stained with Luxol fast blue for analysis of […].

Iba1+ cells = assay: Iba1 immunolabeling of macrophages/microglia in EAE mouse spinal cord; type: in vivo; conditions: EAE mice; compared to sham
Procedure: as §1
As MS is closely associated with inflammation and autoimmunity, the TAT-G-Gpep peptide was tested to determine if it affects microglial/macrophage recruitment.

EAE = conditions: Shijie et al. 2009; cited from earlier work
EAE in rats = conditions: direct application (Smith et al.); cited from earlier work
inflammation = conditions: EAE (Pitt et al.); cited from earlier work
activated T-cells = conditions: Pitt et al.; cited from earlier work
GAPDH = target: T1, GAPDH (Rattus norvegicus, UniProt P04797); assay: Pull-down affinity assay of GluR2-GAPDH interaction; type: binding; conditions: solubilized rat hippocampal tissue, approximately 100 μg GST-fusion protein
T1 construct: Rat hippocampus was homogenized in 50 mM Tris-HCl (pH 7.5); from tissue; host or cells: rat hippocampus homogenate
Procedure: Desired DNA sequences of the GluR2 N-terminus were obtained by polymerase chain reaction. The DNA sequences were digested with BamHI and Xhol enzymes to create sticky ends and subsequently incorporated into GST-plasmids (pGEX4T3) through DNA ligation. Following ligation, transformation with DH5a competent cells was performed to amplify the plasmid content. Subsequently, the plasmids were extracted and subjected to sequence confirmation. Having the desired DNA sequences confirmed, the GST-fusion proteins were expressed through the transformation with another strain of competent cells (i.e. BL21). The GST-fusion proteins were then precipitated and purified through glutathione resin (from Genescript).
Rat hippocampus was homogenized in 50 mM Tris-HCl (pH 7.5), 150 mM NaCl, 1% NP-40, 0.5% sodium deoxycholate, 1 mM EDTA, 10% Triton X-100, 1 mM PMSF and protease inhibitor cocktail (Sigma, 5 microl per 100 mg tissue). The hippocampal tissue was further solubilized with 1% Triton X-100 and then centrifuged at 14,000 rpm at 4° C. for 15 mins The solubilized hippocampal tissue (approximately 1 milligram of protein) was incubated with glutathione resin (Genescript) and indicated GST-fusion proteins (approximately 100 μg) at 4° C. overnight and followed by an hour of incubation at room temperature. After the incubation, the samples were washed 4-6 times with 1 mL PBS contained 0.1% Triton X-100. […]

EAE mice = EAE mice (Fazio et al. 2008); cited from earlier work
hippocampal neurons = conditions: animal models of ischemic stroke; previously shown (PCT/CA2007/001539); cited from earlier work
GluR2-GAPDH interaction = conditions: previously shown (PCT/CA2007/001539); cited from earlier work
cytokines = assay: Bioplex, cytokine profiles in cultured spleenocytes re-stimulated with MOG35-55; type: in vivo, mice; conditions: vs the other two groups
Procedure: Cytokine measurement was performed by Bioplex Protein Array (Bio-Plex Pro™ Mouse Cytokine 23-plex Assay) from Bio-Rad as per manufacturer's instruction. EAE mice serum, culture supernatant of spleenocytes in different treatment groups and supernatant of brain infiltrated leukocyte culture were used for bioplex protein array in duplicates. The standard curves were optimized automatically by the software (Bioplex manager) and verified manually. The Bioplex manager software was used to calculate cytokine concentrations. Data is expressed as Mean±SEM.

T1 sequence (P04797 whole entry, the tested form may be a part): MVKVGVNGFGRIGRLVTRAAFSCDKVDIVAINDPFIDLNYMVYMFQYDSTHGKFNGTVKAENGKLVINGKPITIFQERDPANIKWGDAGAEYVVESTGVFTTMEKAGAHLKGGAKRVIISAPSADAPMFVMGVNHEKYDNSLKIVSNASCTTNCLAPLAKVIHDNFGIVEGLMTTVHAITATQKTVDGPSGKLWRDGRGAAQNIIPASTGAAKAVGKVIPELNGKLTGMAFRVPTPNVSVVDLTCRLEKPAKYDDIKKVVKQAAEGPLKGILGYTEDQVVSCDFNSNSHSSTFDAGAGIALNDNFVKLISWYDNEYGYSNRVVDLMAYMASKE
Sequence of GluR2-GAPDH interaction (P04406 whole entry, the tested form may be a part): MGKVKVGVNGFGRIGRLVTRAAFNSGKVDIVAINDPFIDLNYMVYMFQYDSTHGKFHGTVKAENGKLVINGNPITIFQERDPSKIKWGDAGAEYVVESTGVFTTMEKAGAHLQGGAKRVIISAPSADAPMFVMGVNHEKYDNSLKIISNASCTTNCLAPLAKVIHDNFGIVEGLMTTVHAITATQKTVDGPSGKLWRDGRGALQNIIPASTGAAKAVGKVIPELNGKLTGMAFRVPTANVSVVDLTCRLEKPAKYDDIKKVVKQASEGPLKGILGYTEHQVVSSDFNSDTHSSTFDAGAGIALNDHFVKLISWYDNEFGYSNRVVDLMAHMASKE

## YGRKKRRQRRRAFDLSQYDLKWQVDYLKYDYGTASELRASA (G-Gpep-sc or G-Gpep-scrambled) [TAT-G-Gpep-sc, scrambled G-Gpep control peptide fused to TAT domain]
neurofilament-H
  area occupied by neurofilament-H: significantly lower
oligodendrocytes
  number of CNPase- and CC1-labeled oligodendrocytes: significantly lower
myelin
  demyelination (myelin in the ventral funiculus): Significant demylenation
Iba1+ cells
  number of Iba1+ cells in the dorsal and ventral horns: significantly more macrophages/microglia

## [N-]=[N+]=CC(=O)CC[C@H](N)C(=O)O [DON, 6-diazo-5-oxo-L-norleucine]
EAE
  neurological effects of EAE: attenuated

## NS(=O)(=O)c1cccc2c1c([N+](=O)[O-])cc1nc(O)c(O)nc12 [NBQX]
EAE in rats
  acute and chronic neurological effects of EAE: reduces the acute and chronic neurological effects of EAE
inflammation
  amount of inflammation: did not reduce
Activated T-cells
  in vitro proliferation of activated T-cells: did not reduce

## O=c1[nH]c2cc(C(F)(F)F)c(N3CCOCC3)cc2n(CP(=O)(O)O)c1=O [MPQX]
EAE in rats
  acute and chronic neurological effects of EAE: reduces the acute and chronic neurological effects of EAE

## GST alone: glutathione S-transferase alone, negative control
GAPDH
  precipitation (pull down) of GAPDH: neither the GST alone nor the GST-fusion protein containing fragment 1 (Tyr142-Leu161 (SEQ ID NO:7)) sufficed to “pull down” GAPDH

## CC1(C)[C@@H](OC(=O)CCC(=O)O)CC[C@]2(C)[C@H]3C(=O)C=C4[C@@H]5C[C@@](C)(C(=O)O)CC[C@]5(C)CC[C@@]4(C)[C@]3(C)CC[C@@H]12 [carbenoxolone]
EAE
  neurological effects of EAE: attenuated

## O=C(Nc1nc(C(F)(F)F)co1)C1c2ccccc2Oc2ccccc21 [RO0711401]
EAE mice
  motor coordination: improves motor coordination

## YYQWDKFAYLYDSDRGLSTLQAVLDSAAEKK (GluR2 NT1-3-2) [G-Gpep, interfering peptide, GluR2 NT1-3-2 (Y142-K172)]
Hippocampal neurons
  protection of neurons from ischemia-induced cell death: protecting neurons from ischemia-induced cell death
GluR2-GAPDH interaction
  disruption of GluR2-GAPDH interactions: capable of disrupting GluR2-GAPDH interactions
cytokines
  immunoreactivity of spleenocytes (most cytokines): significantly suppressed

## GST-Fragment 2: GST fusion protein of fragment 2, Asp153-Lys172 of GluR2 N-terminus, DSDRGLSTLQAVLDSAAEKK (SEQ ID NO:5) (also: GST fusion protein)
GAPDH
  precipitation (pull down) of GAPDH: able to precipitate GAPDH
